Test results taken from patent US20210106550A1, “COMPOSITIONS FOR PREVENTING OR TREATING COGNITIVE IMPAIRMENT-RELATED DISEASE COMPRISING MUMEFURAL” (KOREA INSTITUTE OF ORIENTAL MEDICINE, priority 2018, published 2021).

Key:
[1] = system: BDNF and phospho-CREB proteins; experiment: western blot of memory-related factors in hippocampus; type: in vivo, Wistar rats
Description: (§1) Specifically, 12-week-old Wister rats (350 g to 380 g) were used for the experiments. After obtaining the experimental animals, appearance was visually inspected and then normal symptoms were observed during a 7-day acclimation period. Healthy animals were selected therefrom and assigned to groups by a random method according to body weight ranges, and then experiments were performed. During the acclimation and experiment, a constant breeding environment was maintained under the conditions of a temperature of 23±3° C., a relative humidity of 50±10%, a ventilation frequency of 12 times to 16 times per hour, a 12-hour light-dark cycle (light on at 7:00, light off at 19:00), and an intensity of illumination of 150 Lx to 300 Lx. Experiments were performed using sterilized instruments, and the rats were allowed free access to tap water and a solid feed (PMI nutrition, USA) for 24 hours.
(§2) In order to construct a vascular dementia-mimic animal model, chronic cerebral hypoperfusion was induced by bilateral common carotid artery occlusion (2VO, hereinafter referred to as “brain damage (BCCA0)”) (Wakita et al., 1994). The rats were anesthetized with 4% isoflurane, and the anesthesia was maintained by 1.5% isoflurane during the operation. The central neck was incised to expose the bilateral common carotid artery carefully so as not to cause damage to the vagal nerve. Ligation was performed twice with No. 3 silk, thereby constructing an animal model in which dementia was induced by brain damage.
(§3) After 21 days from the BCCA0 operation, the Wistar rats were orally administered with mumefural for 42 days. The rats were divided into 5 groups listed in Table 1 below, and controls were orally administered with saline. Different concentrations of mumefural were set in the oral administration as low concentration (20 mg/kg), medium concentration (40 mg/kg), and high concentration (80 mg/kg).
In order to investigate effects of mumefural on normalization of damaged hippocampus in the dementia-mimic animal model, mumefural was administered in the same manner as in Example 1, and then expression levels of memory-related factors in the hippocampus were analyzed.
Specifically, the hippocampus was excised from each of the dementia-mimic rats after administration of mumefural was completed, and proteins were extracted therefrom. Expression levels of brain-derived neurotrophic factor (BDNF), phospho-cAMP response element-binding protein (phospho-CREB), and cAMP response element-binding protein (CREB) were analyzed by western blotting. β-Actin was used as a loading control.

[2] = system: ChAT, VAChT, and AChE proteins; experiment: western blot of ChAT, VAChT, and AChE proteins in basal forebrain; type: in vivo; conditions: compared with the negative control; FIGS. 5A, 5B
Description: as §1, §2, §3

[3] = system: ChAT-positive cholinergic cells; experiment: immunohistostaining of ChAT-positive cholinergic cells in basal forebrain; type: in vivo, Wistar rats; conditions: BCCAo rats, oral mumefural; compared with the negative control; FIGS. 4A, 4B
Description: (§4) Specifically, 12-week-old Wister rats (350 g to 380 g) were used for the experiments. After obtaining the experimental animals, appearance was visually inspected and then normal symptoms were observed during a 7-day acclimation period. Healthy animals were selected therefrom and assigned to groups by a random method according to body weight ranges, and then experiments were performed. […]
In order to investigate effects of mumefural on normalization of the cholinergic system in the dementia-mimic animal model, mumefural was administered in the same manner as in Example 1, and then the number of cholinergic neurons of the basal forebrain was measured.
Specifically, the brain was excised from each of the dementia-mimic rats after administration of mumefural was completed and sectioned into slices with a thickness of 40 μm. Subsequently, the cholinergic neurons of the basal forebrain were detected using choline acetyltransferase (ChAT) protein, which is known to be expressed in cholinergic neurons. The slices were stained by immunohistostaining using an anti-ChAT antibody as a primary antibody and a donkey anti-goat antibody as a secondary antibody, and anti-ChAT positive cells were detected.

[4] = system: ChAT, VAChT, and AChE proteins; experiment: western blot of ChAT, VAChT, and AChE proteins in hippocampus; type: in vivo; conditions: compared with the negative control; FIGS. 7A, 7B
Description: as §1, §2, §3

astrocytes = experiment: immunohistostaining of GFAP (astrocytes) in hippocampus and white matter; type: in vivo, Wistar rats
Description: as §1, §2
After 21 days from the BCCA0 operation, the Wistar rats were orally administered with mumefural for 42 days. The rats were divided into 5 groups listed in Table 1 below, and controls were orally administered with saline. […]
In order to investigate effects of mumefural on normalization of damaged hippocampus and corpus callosum of white matter in the dementia-mimic animal model, mumefural was administered in the same manner as in Example 1, and then microglia and astrocytes were detected in the hippocampus and white matter to identify gliosis. […]

[5] = system: NMDAR2A and NMDAR2B proteins; experiment: western blot of post-synaptic receptors in hippocampus; type: in vivo, Wistar rats; conditions: compared with the negative control; FIGS. 12A, 12B
Description: as §4
In order to investigate effects of mumefural on normalization of damaged hippocampus in the dementia-mimic animal model, mumefural was administered in the same manner as in Example 1, and then amounts of post-synaptic receptors in the hippocampus were analyzed by examining expression levels of N-methyl-D-aspartate receptor 2A (NMDAR2A) and N-methyl-D-aspartate receptor 2B (NMDAR2B) proteins.
Specifically, the hippocampus was excised from each of the dementia-mimic rats after administration of mumefural was completed, and the proteins were extracted therefrom. Expression levels of the NMDAR2A and NMDAR2B proteins were analyzed by western blotting. β-Actin was used as a loading control.

AChE = experiment: enzyme-linked immunosorbent assay of AChE activity in hippocampus; type: in vivo; conditions: compared with the negative control; FIG. 8
Description: as §1
In order to construct a vascular dementia-mimic animal model, chronic cerebral hypoperfusion was induced by bilateral common carotid artery occlusion (2VO, hereinafter referred to as “brain damage (BCCA0)”) (Wakita et al., 1994). The rats were anesthetized with 4% isoflurane, and the anesthesia was maintained by 1.5% isoflurane during the operation. The central neck was incised to expose the bilateral common carotid artery carefully so as not to cause damage to the vagal nerve. […]

phospho-CAMKII protein = experiment: western blot of phospho-CAMKII in hippocampus; type: in vivo, Wistar rats; conditions: compared with the negative control; FIGS. 13A, 13B
Description: as §4
In order to investigate effects of mumefural on normalization of damaged hippocampus in the dementia-mimic animal model, mumefural was administered in the same manner as in Example 1, and then expression levels of neurotransmitter secretion substances in the hippocampus were analyzed.
Specifically, the hippocampus was excised from each of the dementia-mimic rats after administration of mumefural was completed, and proteins were extracted therefrom. Expression levels of phospho-Ca^2+/calmodulin-dependent protein kinase II (phospho-CAMKII) and Ca^2+/calmodulin-dependent protein kinase II (CAMKII) proteins were analyzed by western blotting. β-Actin was used as a loading control.

[6] = 20 mg/kg, 40 mg/kg, and 80 mg/kg oral, relative to normal control
[7] = compared with the negative control, FIGS. 14A, 14B

How did the “expression level of BDNF protein vs normal control” value [1, 6] turn out when `O=Cc1ccc(COC(=O)CC(O)(CC(=O)O)C(=O)O)o1` (stereo not drawn) [mumefural] was run?
Its value is “higher expression levels than that of the normal control by about three times or more”.

And the “expression level of phospho-CREB protein vs normal control” value [1, 6]?
The value was “higher expression levels than that of the normal control by about three times or more”.

And the “expression level of BDNF protein in hippocampus” value [1, 7]?
The value was “significantly increased”.

And the “expression level of phospho-CREB protein in hippocampus” value [1, 7]?
The value was “significantly increased”.

What about the “expression level of AChE protein in the basal forebrain” value [2] of the same molecule?
Its value is “reduced”.

What about the “expression level of ChAT protein in the basal forebrain” value [2] of the same molecule?
Its value is “increased”.

And the “expression level of VAChT protein in the basal forebrain” value [2]?
The value was “increased”.

What about the “number of cells positive for the anti-ChAT antibody in the basal forebrain” value [3] of the same molecule?
The value was “significantly increased”.

And the “expression level of AChE protein in the hippocampus” value [4]?
Its value is “decreased”.

What about the “expression level of ChAT protein in the hippocampus” value [4] of the same molecule?
Its value is “increased”.

And the “expression level of VAChT protein in the hippocampus” value [4]?
The value was “increased”.

What about the “numbers of astrocytes, effect vs normal control” value (astrocytes; 20 mg/kg, 40 mg/kg, and 80 mg/kg oral, hippocampus and white matter) of the same molecule?
Its value is “effects similar to or superior to those of the normal control”.

What about the “numbers of astrocytes (GFAP positive cells) in the hippocampus” value (astrocytes; compared with the negative control, FIGS. 16A, 16B) of the same molecule?
Its value is “significantly decreased”.

And the “numbers of astrocytes (GFAP positive cells) in the white matter” value (astrocytes; compared with the negative control, FIGS. 16C, 16D)?
The value was “significantly decreased”.

And the “expression level of NMDAR2A protein in hippocampus” value [5]?
The value was “significantly increased”.

What about the “expression level of NMDAR2B protein in hippocampus” value [5] of the same molecule?
The value was “significantly increased”.

And the “activity of AChE in the hippocampus” value (AChE)?
The value was “decreased”.

And the “expression level of the phospho-CAMKII protein in hippocampus” value (phospho-CAMKII protein)?
Its value is “significantly increased”.
